Measured values from PubChem BioAssay (NCI).
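Five concentrations, 48 hours, 96-well plates. The concentration for 50% growth inhibition is given as GI50. The concentration for full growth arrest is given as TGI.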

Experiments:
Assay in all cases: growth of human tumour cells (NCI), 48 h
[1] = tested on: 786-0 renal
[2] = tested on: EKVX NSCLC
[3] = tested on: K-562 leukemia
[4] = tested on: KM12 colon
[5] = tested on: MDA-MB-435
[6] = tested on: MOLT-4 leukemia
[7] = tested on: OVCAR-4 ovarian
[8] = tested on: SF-539 CNS
[9] = tested on: SK-MEL-2 melanoma
[10] = tested on: SNB-19 CNS

Compound	GI50 [1]	TGI [1]	GI50 [2]	TGI [2]	GI50 [3]	TGI [3]	GI50 [4]	TGI [4]	GI50 [5]	TGI [5]	GI50 [6]	TGI [6]	GI50 [7]	TGI [7]	GI50 [8]	TGI [8]	GI50 [9]	TGI [9]	GI50 [10]	TGI [10]
Cc1cc(Cl)cc(Cc2cc(Cl)cc(C)c2O)c1O	2.48 µM	7.76 µM	3.62 µM	68.8 µM	3.08 µM	12.1 µM	2.85 µM	10.2 µM	2.05 µM	6.39 µM	3.45 µM	49.8 µM	3.29 µM	50.6 µM	2.45 µM	6.62 µM	2.6 µM	5.73 µM	3.32 µM	16.8 µM
CCCCCC[C@H](C)NC(=O)c1ccc(Nc2nc3ccccc3c3occc23)cc1	2.35 µM	7.71 µM	2.2 µM	5.42 µM	8.72 µM	> 100 µM	4.27 µM	20.5 µM	2.9 µM	15.3 µM	3.4 µM	> 100 µM			2.48 µM	5.31 µM	2.64 µM	6.83 µM	5.15 µM	> 100 µM
N#CC1C(=O)NC(c2ccccc2[N+](=O)[O-])c2sc3c(F)cccc3c21 (stereo not drawn)	33 µM	> 100 µM	3.41 µM	41.8 µM	2.39 µM	58.8 µM	20 µM	51.4 µM	23.2 µM	> 83.9 µM	15.4 µM	> 73 µM	1.5 µM	44.7 µM	22 µM	72.8 µM	9.03 µM	49.8 µM	22.1 µM	> 100 µM
COC(=O)[C@]12CC[C@@H](C)[C@H](C)[C@@H]1C1=CC[C@@H]3[C@@]4(C)C(C=O)=C[C@@](C)(COC(=O)/C=C/c5ccccc5)[C@@H]4[C@H](O)C[C@@]3(C)[C@]1(C)CC2	5.01 µM	42.7 µM	2.86 µM	11.5 µM	3.53 µM	> 100 µM	3.58 µM	19.4 µM	3.04 µM	10.3 µM	2.09 µM	7.36 µM	3.16 µM	> 100 µM	3.78 µM	17.5 µM	3.21 µM	12.8 µM	6.47 µM	> 100 µM
COCc1c(-c2ccc(NC(=O)Nc3cc(C(F)(F)F)ccc3F)c(F)c2)c2c(N)ncnn2c1CN1CCOCC1	2.76 µM	> 10 µM	1.71 µM	7.62 µM	1.18 µM	> 10 µM	0.041 µM	5.43 µM	1.93 µM	> 10 µM	2.07 µM	9.8 µM	1.97 µM	> 10 µM	0.283 µM	2.64 µM	1.07 µM	2.58 µM	2.93 µM	> 10 µM
COc1ccc2c(c1)C(=O)c1c-2c(Nc2cccc(C(C)=O)c2)nc2ccccc12	3.78 µM	14 µM	12.5 µM	32.1 µM	44.7 µM	> 100 µM	27 µM	> 100 µM	30.8 µM	> 100 µM	64.6 µM	> 100 µM	15.5 µM	> 100 µM	10.2 µM	22.2 µM	16.4 µM	53.5 µM	5.99 µM	18.3 µM
C=CCc1c(O)c(C(=O)/C=C/c2ccccc2)c(OC)c2ccoc12	4.12 µM	16.8 µM	6.13 µM	20.6 µM	2.87 µM	16.2 µM	4.06 µM	13.6 µM	2.78 µM	10.9 µM	2.17 µM	16.6 µM	2.89 µM	12.8 µM	1.71 µM	3.93 µM	3.04 µM	13.8 µM	2.85 µM	10.7 µM
CCn1ccc(NS(=O)(=O)c2ccc(N)cc2)nc1=O	> 100 µM	> 100 µM	> 100 µM	> 100 µM	> 100 µM	> 100 µM	> 100 µM	> 100 µM	> 100 µM	> 100 µM	> 100 µM	> 100 µM	> 100 µM	> 100 µM	> 100 µM	> 100 µM	> 100 µM	> 100 µM	> 100 µM	> 100 µM
COc1cc(/C=C/C(=O)c2c(C)nc3ccccc3c2C)ccc1OCCCN1CCN(C(=O)c2ccco2)CC1	7.83 µM	20.5 µM	7.76 µM	42.6 µM	2.57 µM	10.6 µM	11.4 µM	24.3 µM	4.55 µM	19.8 µM	0.528 µM	8 µM	8.85 µM	> 100 µM	14.4 µM	27.5 µM	16.1 µM	37.7 µM	11.9 µM	31.1 µM
COc1cnc2c(c1)C(=O)c1c-2n(CCCN2CCNCC2)c(=O)c2cc([N+](=O)[O-])ccc12	0.209 µM	1.16 µM	1.29 µM	2.69 µM			0.38 µM	1.77 µM	1.25 µM	2.68 µM	0.0365 µM	1.05 µM	1.24 µM	3.01 µM	0.354 µM	1.47 µM	2.07 µM	3.95 µM	0.21 µM	2.1 µM
C/C(=N/Nc1nc(C)cc(=O)[nH]1)C(=O)O		> 100 µM		> 100 µM		> 100 µM		> 100 µM		> 100 µM		> 100 µM		> 100 µM				> 100 µM		> 100 µM
CC1=C([Se]CC(OC(=O)[C@@H](CO)NC(=O)OC(C)(C)C)C(=O)NCCCCCC(=O)OCc2ccccc2)C(=O)c2ccccc2C1=O (stereo partly drawn)	2.08 µM	3.53 µM	1.81 µM	3.87 µM			1.53 µM	2.9 µM	1.79 µM	3.49 µM	1.39 µM	4.93 µM	1.53 µM	2.86 µM	1.7 µM	3.09 µM	2.26 µM	4.08 µM	0.774 µM	2.11 µM
